From US20240287080A1 (IDEAYA Biosciences Inc., priority 2021, published 2024) come the findings set out here.

In general, IC50 refers to the concentration at which inhibition is half-maximal. Read a low IC50 as higher potency.

The structures appear in SMILES notation.

In one assay the target is T1, Pol theta (1-899) (Homo sapiens, UniProt O75417).
T1 construct: Pol theta (1-899) (5 nM) in assay buffer
T1 sequence (O75417 1-899): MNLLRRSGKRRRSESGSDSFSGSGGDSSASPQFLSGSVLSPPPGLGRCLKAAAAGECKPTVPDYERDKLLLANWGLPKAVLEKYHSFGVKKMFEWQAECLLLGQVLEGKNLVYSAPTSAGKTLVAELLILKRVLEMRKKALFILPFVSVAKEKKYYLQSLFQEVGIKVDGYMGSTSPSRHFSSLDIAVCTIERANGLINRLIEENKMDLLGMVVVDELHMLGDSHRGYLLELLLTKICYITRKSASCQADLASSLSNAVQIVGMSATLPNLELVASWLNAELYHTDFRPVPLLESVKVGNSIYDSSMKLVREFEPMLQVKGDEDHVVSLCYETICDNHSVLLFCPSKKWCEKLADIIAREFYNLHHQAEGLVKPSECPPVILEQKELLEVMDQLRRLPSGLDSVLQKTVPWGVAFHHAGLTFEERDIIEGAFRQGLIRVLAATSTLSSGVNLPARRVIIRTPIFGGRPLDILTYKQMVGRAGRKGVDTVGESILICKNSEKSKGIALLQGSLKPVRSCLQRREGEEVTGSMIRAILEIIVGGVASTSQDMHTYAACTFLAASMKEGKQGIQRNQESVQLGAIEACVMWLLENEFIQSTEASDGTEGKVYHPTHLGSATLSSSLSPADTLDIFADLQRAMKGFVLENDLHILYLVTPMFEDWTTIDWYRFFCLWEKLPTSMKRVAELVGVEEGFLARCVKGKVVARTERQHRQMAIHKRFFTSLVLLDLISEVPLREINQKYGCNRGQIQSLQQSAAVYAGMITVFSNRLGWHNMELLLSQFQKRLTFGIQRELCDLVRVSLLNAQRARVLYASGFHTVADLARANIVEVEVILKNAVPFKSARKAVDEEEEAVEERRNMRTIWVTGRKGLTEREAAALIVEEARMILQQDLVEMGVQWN
Nature of the assay: Pol theta ATPase activity, NADH oxidation-coupled enzymatic assay (ATPase NADH coupling: Standard Screening: hPolQ). It is filed as biochemical. To be noted: Pol theta (1-899) 5 nM, NADH oxidation-coupled ATPase assay; compounds of Table 3. The method in brief:
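Rates of ATP hydrolysis taken from 60-min A340 traces of NADH oxidation via PK/LDH coupling, then fit four-parameter for IC50, Hill slope and max inhibition. Enzyme (5 nM, 1-899) and compounds preincubated 15 min before ATP 100 μM and 50-thymine ssDNA 300 nM (stock, equal volume added).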
For `COc1nnc(NC(=O)c2cnc(C)cc2-c2ccnc(C(F)(F)F)c2)s1` [Example 467, N-(5-methoxy-1,3,4-thiadiazol-2-yl)-6-methyl-2′-(trifluoromethyl)-[4,4′-bipyridine]-3-carboxamide], the IC50 lay in the range of 500 to 1000 nM.
On the same count and under the same terms, as for `COc1nnc(NC(=O)c2cnc(C)cc2-c2cccc(C(=O)N(C)C)c2)s1` [Example 336, 4-[3-(dimethylcarbamoyl)phenyl]-N-(5-methoxy-1,3,4-thiadiazol-2-yl)-6-methylpyridine-3-carboxamide], the figure is 1000 to 10000 nM.
In turn, `COc1nnc(NC(=O)c2cnc(C)cc2-c2cccc3ccccc23)s1` [Example 398, N-(5-methoxy-1,3,4-thiadiazol-2-yl)-6-methyl-4-(naphthalen-1-yl)pyridine-3-carboxamide] showed an IC50 not above 200 nM.
On the same count and under the same terms, the figure for `COc1cc(C)cc(-c2cc(C)ncc2C(=O)Nc2nnc(OC)s2)c1` [Example 422, N-(5-methoxy-1,3,4-thiadiazol-2-yl)-4-(3-methoxy-5-methylphenyl)-6-methylpyridine-3-carboxamide] is 500 to 1000 nM; for `COc1cnc(Cl)cc1-c1cc(C)ncc1C(=O)Nc1nnc(OC2([C@@H]3CCOC3)CC2)s1` (single isomer, unassigned) [Example 299] it is not above 200 nM.
Still for that read-out and setting: as for `COc1nnc(NC(=O)c2cnc(C)cc2-c2cccc(C(N)=O)c2)s1` [Example 488, 4-(3-carbamoylphenyl)-N-(5-methoxy-1,3,4-thiadiazol-2-yl)-6-methylnicotinamide], the figure is 1000 to 10000 nM.
In the case of `COc1nnc(NC(=O)c2cnc(C)cc2-c2cc(C)c([S@+](C)[O-])cc2OC)s1` (single isomer, unassigned) [Example 307], the half-inhibitory concentration (IC50) was in the range of 200 to 500 nM.
Still for that read-out and setting: as for `COc1nnc(NC(=O)c2cnc(C)cc2-c2ccc3c(c2)CCN(C)C3)s1` [Example 432, N-(5-methoxy-1,3,4-thiadiazol-2-yl)-6-methyl-4-(2-methyl-1,2,3,4-tetrahydroisoquinolin-6-yl)nicotinamide], the figure is 1000 to 10000 nM.
For `COc1nnc(NC(=O)c2ccnc(C#N)c2-c2cc(Cl)ncc2OC)s1` [Example 289, 2′-chloro-2-cyano-5′-methoxy-N-(5-methoxy-1,3,4-thiadiazol-2-yl)-[3,4′-bipyridine]-4-carboxamide], the concentration for half-maximal inhibition (IC50) is 1000 to 10000 nM.
Same read-out and setting: as for `COc1nnc(NC(=O)c2cnc(C)cc2-c2ccc3ccccc3c2)s1` [Example 363, N-(5-methoxy-1,3,4-thiadiazol-2-yl)-6-methyl-4-(naphthalen-2-yl)pyridine-3-carboxamide], the figure is 500 to 1000 nM; as for `COc1nnc(NC(=O)c2cc(N3CCC3)ncc2-c2cc(Cl)ncc2OC)s1` [Example 323, 6-(azetidin-1-yl)-2′-chloro-5′-methoxy-N-(5-methoxy-1,3,4-thiadiazol-2-yl)-[3,4′-bipyridine]-4-carboxamide], not above 200 nM.
Still for that read-out and setting: the figure for `COc1nnc(NC(=O)c2cnc(C)cc2-c2ccc(C(F)(F)F)cc2)s1` [Example 355, N-(5-methoxy-1,3,4-thiadiazol-2-yl)-methyl4-(4-(trifluoromethyl)phenyl) nicotinamide] is 1000 to 10000 nM.
The same measure, in the same setting: as for `COc1nnc(NC(=O)c2cnc(C)cc2-c2ccc(C(=O)N(C)C)cc2)s1` [Example 369, 4-[4-(dimethylcarbamoyl)phenyl]-N-(5-methoxy-1,3,4-thiadiazol-2-yl)-6-methylpyridine-3-carboxamide], the figure is 1000 to 10000 nM; as for `COc1nnc(NC(=O)c2cnc(C)cc2-c2ccc(F)c(OC)c2)s1` [Example 330, 4-(4-fluoro-3-methoxyphenyl)-N-(5-methoxy-1,3,4-thiadiazol-2-yl)-6-methylpyridine-3-carboxamide], 1000 to 10000 nM.
As for `COc1nnc(NC(=O)c2cnc(C)cc2-c2cccc3c2ccn3C)s1` [Example 482, N-(5-methoxy-1,3,4-thiadiazol-2-yl)-6-methyl-4-(1-methyl-1H-indol-4-yl)pyridine-3-carboxamide], the IC50 lay within 1000 to 10000 nM.

The same assay, now with this note: Table 4; Pol theta (1-899) 5 nM, ATP, dT50 ssDNA.
In turn, `COc1cnc(Cl)cc1-c1cc(C)ncc1C(=O)Nc1nnc(O[C@H]2CC[C@@H](O)C2)s1` (single isomer, unassigned) [Example 58] had a concentration for half-maximal inhibition (IC50) not above 200 nM.
On the same count and under the same terms, as for `COc1nnc(NC(=O)c2cnc(C)cc2-c2cc(C)ncc2OC)s1` [Example 8], the figure is not above 200 nM.

The same assay, now with this note: Table 5; Pol theta (1-899) 5 nM, ATP, dT50 ssDNA.
For `COc1cnc(Cl)c(F)c1-c1cc(C)ncc1C(=O)Nc1nnc(O[C@H]2COC3(CC3)C2)s1` (single isomer, unassigned) [Example 210], the IC50 is not above 200 nM.
The same measure, in the same setting: as for `COc1cnc(Cl)c(F)c1-c1cc(C)ncc1C(=O)Nc1nnc(O[C@@H]2COC3(CC3)C2)s1` (single isomer, unassigned) [Example 209], the figure is not above 200 nM.
`COc1cnc(Cl)cc1-c1cc(C)ncc1C(=O)Nc1nnc(O[C@@H]2CCC[C@@H](O)C2)s1` (single isomer, unassigned) [Example 162] returned a half-maximal inhibitory concentration (IC50) not above 200 nM.
Same read-out and setting: as for `COc1nnc(NC(=O)c2cnc(C)cc2-c2cccn3nnnc23)s1` [Example 85, N-(5-methoxy-1,3,4-thiadiazol-2-yl)-6-methyl-4-(tetrazolo(1,5-a)pyridin-8-yl)nicotinamide], the figure is 1000 to 10000 nM; as for `COc1cnc(Cl)cc1-c1cc(C)ncc1C(=O)Nc1nnc(OC2CC(C)(O)C2)s1` (mixture of isomers) [Example 176, 2′-chloro-N-(5-(3-hydroxy-3-methylcyclobutoxy)-1,3,4-thiadiazol-2-yl)-5′-methoxy-6-methyl-(4,4′-bipyridine)-3-carboxamide], not above 200 nM.
The molecule `COc1cnc(Cl)cc1-c1cc(C)ncc1C(=O)Nc1nnc(O[C@H]2C[C@@H](O)C2(C)C)s1` (single isomer, unassigned) [Example 183, 2′-chloro-N-(5-((1r,3s)-3-hydroxy-2,2-dimethylcyclobutoxy)-1,3,4-thiadiazol-2-yl)-5′-methoxy-6-methyl-(4,4′-bipyridine)-3-carboxamide] had a concentration for half-maximal inhibition (IC50) not above 200 nM.
Still for that read-out and setting: the figure for `COc1cnc(Cl)cc1-c1cc(C)ncc1C(=O)Nc1nnc(O[C@@H]2CCC23COC3)s1` (single isomer, unassigned) [Example 137] is not above 200 nM; for `COc1cnc(Cl)cc1-c1cc(C)ncc1C(=O)Nc1nnc(O[C@H]2C[C@@H](OC)C2)s1` (single isomer, unassigned) [Example 132, 2′-chloro-5′-methoxy-N-(5-((1s,3s)-3-methoxycyclobutoxy)-1,3,4-thiadiazol-2-yl)-6-methyl-(4,4′-bipyridine)-3-carboxamide] it is not above 200 nM; for `COc1cnc(Cl)cc1-c1cc(C)ncc1C(=O)Nc1nnc(O[C@H]2CCO[C@@H]2C)s1` (racemic) [Example 93, rac-2′-Chloro-5′-methoxy-6-methyl-N-(5-(((2R,3S)-2-methyltetrahydrofuran-3-yl)oxy)-1,3,4-thiadiazol-2-yl)-(4,4′-bipyridine)-3-carboxamide] it is not above 200 nM.
Still for that read-out and setting: as for `COc1cnc(Cl)cc1-c1cc(C)ncc1C(=O)Nc1nnc(O[C@H]2CC[C@H](C(C)(C)O)CC2)s1` [Example 187, 2′-chloro-N-(5-(((1r,4r)-4-(2-hydroxypropan-2-yl)cyclohexyl)oxy)-1,3,4-thiadiazol-2-yl)-5′-methoxy-6-methyl-(4,4′-bipyridine)-3-carboxamide], the figure is not above 200 nM.

Staying with this assay, now noted: Table 5; values given as bound; Pol theta (1-899) 5 nM, ATP, dT50 ssDNA.
`COc1nnc(NC(=O)c2ccn(-c3cc(Cl)ncc3OC)n2)s1` [Example 235, 1-(2-chloro-5-methoxypyridin-4-yl)-N-(5-methoxy-1,3,4-thiadiazol-2-yl)-1H-pyrazole-3-carboxamide] came in with an IC50 of more than 10000 nM.
